Source: patent US7981838B2, “Defoliant” (Bayer CropScience AG, priority 2007, dated 2011)

Test system: Cotton plants of the cultivar "Linda"
Test: Leaf drop (defoliation) test on cotton plants in climatized chamber, spray application
Type: in vivo
Conditions: 300 l/ha water
Description: A water application rate of 300 l/ha was initially charged. The components herbicide and adjuvant were then added with stirring at the application rates and in the manner stated in table 1, such that a homogeneous spray liquor was formed. Here, the active ingredients were employed as suspension concentrates. The adjuvant used was Agrotin® (Bayer CropScience).
Cotton seeds of the cultivar “Linda” were sown at a depth of 1 cm and cultivated in a climatized chamber (16 h of light, temperature during the day: 26° C., at night: 20° C.) until they had reached the 8-10 leaf stage.
The plants were treated on a laboratory spray track with spray liquors of thidiazuron and thidiazuron with combination partners. The water application rate for the spray application was 300 l/ha. After the treatment, the plants were returned to the climatized chamber.
1, 2 and 4 weeks after the application, the leaf drop effect was evaluated according to a scale from 0 to 100%: • 0%=no noticeable effect compared to untreated plants • 100%=all leaves have dropped. 2.2 Results for the Combinations of (A) TDZ with (B) Cyprosulfamide

[1] = Table 2, dose 200 g of a.i./ha, 0.2% by weight of Agrotin added
[2] = Table 2, dose 25 g of a.i./ha, 0.2% by weight of Agrotin added

In the case of `COc1ccccc1C(=O)NS(=O)(=O)c1ccc(C(=O)NC2CC2)cc1` [Cyprosulfamide, 4-cyclopropylaminocarbonyl-N-(2-methoxybenzoyl)benzenesulfonamide], the “Leaf drop [%] 2 weeks after application” value (Table 1, dose 100 g of a.i./ha, 1 l of Agrotin added, scale 0-100%) is reported as 7%, the “Leaf drop [%] 2 weeks after application” value (Table 1, dose 200 g of a.i./ha, 1 l of Agrotin added, scale 0-100%) is reported as 0% and the “Leaf drop [%] 1 week after application” value [1] is reported as 0%. For the same molecule, the “Leaf drop [%] 2 weeks after application” value [1] was 0% and the “Leaf drop [%] 4 weeks after application” value [1] was 0%.
For `O=C(Nc1ccccc1)Nc1cnns1` [TDZ, thidiazuron], the “Leaf drop [%] 2 weeks after application” value (Table 1, dose 35 g of a.i./ha, 1 l of Agrotin added, scale 0-100%) was 67%, the “Leaf drop [%] 1 week after application” value [2] was 37% and the “Leaf drop [%] 2 weeks after application” value [2] was 56%. For the same molecule, the “Leaf drop [%] 4 weeks after application” value [2] was 63%.
